Results published in ChEMBL document CHEMBL4811276, “WITHDRAWN: Discovery of indoline derivatives as anticancer agents via inhibition of tubulin polymerization” (Bioorg Med Chem Lett, 2021).
The source made the active and inactive calls. The rule behind the calls is not given here.

How the values were obtained:
MGC-803 = assay: Antiproliferative activity against human MGC-803 cells assessed as inhibition of cell proliferation measured after 48 hrs by CCK8 assay; format: functional, cell-based; conditions: MGC-803, 48 h
A549 = assay: Antiproliferative activity against human A549 cells assessed as inhibition of cell proliferation measured after 48 hrs by CCK8 assay; format: functional, cell-based; conditions: A549, 48 h
KYSE-30 = assay: Antiproliferative activity against human KYSE-30 cells assessed as inhibition of cell proliferation measured after 48 hrs by CCK8 assay; format: functional, cell-based; conditions: KYSE-30, 48 h
KYSE-450 [1] = assay: Antiproliferative activity against human KYSE-450 cells assessed as inhibition of cell proliferation measured after 48 hrs by CCK8 assay; format: functional, cell-based; conditions: KYSE-450, 48 h
KYSE-510 = assay: Antiproliferative activity against human KYSE-510 cells assessed as inhibition of cell proliferation measured after 48 hrs by CCK8 assay; format: functional, cell-based; conditions: KYSE-510, 48 h
ECa-109 cell line = assay: Antiproliferative activity against human Eca-109 cells assessed as inhibition of cell proliferation measured after 48 hrs by CCK8 assay; format: functional, cell-based; conditions: ECa-109, 48 h
Tubulin (Homo sapiens) = Tubulin (Homo sapiens) (UniProt P68371+Q9H4B7+P0DPH7+P68366+Q13509+Q71U36+P04350+Q3ZCM7+P07437+P68363+Q9BQE3+Q6PEY2+Q13885+Q9BVA1+Q9BUF5); assay: Inhibition of tubulin polymerization in human KYSE-450 cells assessed by disorganised spindle at 1.25 to 2.5 uM measured after 48 hrs by immunoflourescence assay relative to colchicine; format: cell-based; conditions: dose 1.25-2.5 µM
Tubulin = assay: Inhibition of tubulin polymerization in human KYSE-450 cells measured by EBI competition assay relative to colchicine; format: cell-based
KYSE-450 [2] = assay: Antiproliferative activity against human KYSE-450 cells assessed reduced cell viability at 1 to 80 uM measured after 48 hrs; format: functional, cell-based; conditions: dose 1-80 µM
KYSE-450 [3] = assay: Antiproliferative activity against human KYSE-450 cells assessed reduced cell viability at 0.313 to 2.5 uM; format: functional, cell-based; conditions: dose 0.313-2.5 µM, time 20-40 hrs, TDE = time-dependent effect
KYSE-450 [4] = assay: Antiproliferative activity against human KYSE-450 cells assessed reduced cell viability measured after 20 to 60 hrs; format: functional, cell-based; conditions: dose 0.313-2.5 µM, time 20-60 hrs
KYSE-450 [5] = assay: Induction of apoptosis in human KYSE-450 cells assessed by round cells at 0.313 to 2.5 uM measured after 48 hrs by DAPI staining based microscopic method; format: functional, cell-based; conditions: dose 0.313-2.5 µM
KYSE-450 [6] = assay: Induction of apoptosis in human KYSE-450 cells assessed by smaller nucleus at 0.313 to 2.5 uM measured after 48 hrs by DAPI staining based microscopic method; format: functional, cell-based; conditions: dose 0.313-2.5 µM
KYSE-450 [7] = assay: Induction of apoptosis in human KYSE-450 cells assessed by concentrated nucleus at 0.313 to 2.5 uM measured after 48 hrs by DAPI staining based microscopic method; format: functional, cell-based; conditions: dose 0.313-2.5 µM
KYSE-450 [8] = assay: Antiproliferative activity against human KYSE-450 cells assessed as inhibition of colony formation at 0.188 uM measured after 7 days by colony formation assay; format: functional, cell-based; conditions: time 7.0 day

Row | SMILES | IC50 (MGC-803) | IC50 (A549) | IC50 (KYSE-30) | also measured
1 | O=C(Cc1ccc(Br)cc1)N1CCc2cc(Br)ccc21 | 35.8 µM | > 40 µM | 20.7 µM | 
2 | COc1cc(CC(=O)N2CCc3cc(Br)ccc32)cc(OC)c1OC | 22.4 µM | 24.8 µM | 20.2 µM | 
3 | O=C(c1ccccc1)N1CCc2cc(Br)ccc21 | 28.5 µM | > 40 µM | 20.3 µM | 
4 | COc1cc2c(c(OC)c1OC)-c1ccc(OC)c(=O)cc1[C@@H](NC(C)=O)CC2 [COLCHICINE] | 1.07 µM | 0.19 µM | 0.28 µM | 
5 | COc1ccc(CC(=O)N2CCc3cc(Br)ccc32)cc1 | 28.7 µM | 24.8 µM | > 40 µM | 
6 | O=C(c1ccc(Br)cc1)N1CCc2cc(Br)ccc21 | 33.6 µM | > 40 µM | 26.8 µM | 
7 | O=C(Cc1ccc(F)cc1)N1CCc2cc(Br)ccc21 | > 40 µM | > 40 µM | > 40 µM | 
8 | O=C(c1ccc(F)cc1)N1CCc2cc(Br)ccc21 | 24.1 µM | 18.9 µM | 22.1 µM | 
9 | Cc1ccc(CC(=O)N2CCc3cc(Br)ccc32)cc1 | 38.2 µM | > 40 µM | 33.2 µM | 
10 | Cc1ccc(C(=O)N2CCc3cc(Br)ccc32)cc1 | > 40 µM | 38.9 µM | > 40 µM | 
11 | O=C(Cc1ccccc1)N1CCc2cc(Br)ccc21 | 82.8 µM | 28.5 µM | > 40 µM | 

Further lines, with some results ahead:

Row | IC50 (MGC-803) | IC50 (A549) | SMILES | IC50 (KYSE-30) | also measured
12 | 4.3 µM | 21.7 µM | COc1cc(C(=O)N2CCCCc3ccccc32)cc(OC)c1OC | 16.6 µM | 
13 | 1.84 µM | 6.82 µM | COc1cc(C(=O)N2CCc3cc(Br)ccc32)cc(OC)c1OC | 1.61 µM | IC50 (KYSE-450 [1]): 1.49 µM; IC50 (KYSE-510): 2.08 µM; IC50 (ECa-109 cell line): 2.24 µM; inhibition (Tubulin (Homo sapiens)): Active; IC50 (Tubulin): 3.4 µM; Activity (KYSE-450 [2]): Active; Activity (KYSE-450 [3]): Tde; Activity (KYSE-450 [4]): Dose-Dependent Effect; Activity (KYSE-450 [5]): Active; Activity (KYSE-450 [6]): Active; Activity (KYSE-450 [7]): Active; Activity (KYSE-450 [8]): Active
14 | 18.8 µM | 21.1 µM | COc1ccc(C(=O)N2CCc3cc(Br)ccc32)cc1 | 18.9 µM | 
15 | 4.41 µM | 23.7 µM | COc1cc(C(=O)N2CCCc3ccccc32)cc(OC)c1OC | 6.72 µM | 
16 | 7.57 µM | 22 µM | COc1cc(C(=O)N2CCc3ccccc32)cc(OC)c1OC | 7.72 µM | 
17 | 8.32 µM | 17.7 µM | COc1cc(C(=O)N2CCc3cc([N+](=O)[O-])ccc32)cc(OC)c1OC | 6.55 µM | 
